Data as given in US10709692B2, “Isoxazolidine derived inhibitors of receptor interacting protein kinase 1 (RIPK1)” (Denali Therapeutics Inc., priority 2015, dated 2020).
Several values for one entry are separate records, joined by “and”; a condition that tells them apart may be missing. Equal entries are not always repeated.

Legend:
[1] = molecular target: T1, receptor interacting protein kinase 1 (GST-hRIPK1 (8-327)) (Homo sapiens, UniProt Q13546); assay: ADP-Glo luminescence assay, RIPK1 autophosphorylation; format: biochemical; conditions: 1.5 μg/mL GST-hRIPK1 (8-327), 50 μM ATP, 3 hours at room temperature
T1 construct: GST-hRIPK1 (8-327) enzyme was generated by Proteros GmbH by Baculovirus expression system
T1 sequence (Q13546 8-327): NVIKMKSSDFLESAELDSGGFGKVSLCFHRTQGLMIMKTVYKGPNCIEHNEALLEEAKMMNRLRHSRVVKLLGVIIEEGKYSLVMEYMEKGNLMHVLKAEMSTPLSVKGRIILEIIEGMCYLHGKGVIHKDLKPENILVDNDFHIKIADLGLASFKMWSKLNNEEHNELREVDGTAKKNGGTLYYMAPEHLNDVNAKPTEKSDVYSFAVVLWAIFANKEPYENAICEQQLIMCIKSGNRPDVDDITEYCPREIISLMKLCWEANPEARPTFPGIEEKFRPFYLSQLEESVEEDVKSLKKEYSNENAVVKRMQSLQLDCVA
Description: (§1) Compound potency at receptor interacting protein kinase 1 and selectivity at receptor interacting protein kinase 2 and receptor interacting protein kinase 3 was determined in autophosphorylation mode, using an ADP-Glo luminescence assay, which measures the conversion of ATP to ADP.
(§2) GST-hRIPK1 (8-327) enzyme was generated by Proteros GmbH by Baculovirus expression system. GST-hRIPK2 (1-299) and GST-hRIPK3 (1-518) enzymes were purchased from SignalChem. Test compounds were diluted in DMSO and 0.1 μL of solution was dispensed to each well of a 384-well white solid microplates. The assay buffer was 50 mM HEPES pH 7.5, 50 mM NaCl, 30 mM MgCl2. The buffer was supplemented with 0.02% CHAPS, 0.01% of Pluronic F127, 0.1 mg/mL BSA and 1 mM DTT. Only for receptor interacting protein kinase 1 5 mM MnCl2, was included in the assay buffer on the day of the experiment. The enzymatic reaction consisted of 1.5 μg/mL GST-hRIPK1 (8-327) and 50 μM ATP for receptor interacting protein kinase 1, 0.4 μg/mL GST-hRIPK2 (1-299) and 150 μM ATP, 0.4 μg/mL GST-hRIPK3 (1-518) and 15 μM ATP. 5 μL of enzyme and 5 μL of ATP were added to the plate at twice the final assay concentration and incubated at room temperature for 3 hours. Following this reaction, 10 μL of ADP-Glo reagent (Promega) was added to each well and incubated for 40 minutes at room temperature. This stops the kinase reaction and depletes any remaining ATP. 20 μL of ADP-Glo detection reagent was then added to each well and incubated at room temperature for at least 15 minutes. The detection reagent converts ADP to ATP and introduces luciferase and luciferin to detect ATP. The luminescence is then measured with the Envision (PerkinElmer) plate reader. Test compound inhibition was expressed as percent inhibition of internal assay controls. For concentration response curves, normalized data is fit and pIC50 determined using XL-fit (IDBS) for Excel. The pIC50 were averaged to determine a mean value, for a minimum of two independent experiments.
as §1, with “Certain compounds were tested in the following. Compound” for “Compound”, “assay (Berger S. B. et al. (2015) Cell Death Discovery, 1: 15009),” for “assay,”
GST-hRIPK1 (8-327) enzyme was generated by Proteros GmbH by Baculovirus expression system.
as §2, with “Test” for “GST-hRIPK1 (8-327) enzyme was generated by Proteros GmbH by Baculovirus expression system. GST-hRIPK2 (1-299) and GST-hRIPK3 (1-518) enzymes were purchased from SignalChem. Test”, “microplate.” for “microplates.”, “comprised” for “consisted of”, “1” for “1, 0.4 μg/mL GST-hRIPK2 (1-299) and 150 μM ATP, 0.4 μg/mL GST-hRIPK3 (1-518)”, “IC50” for “pIC50”, “experiments. […]” for “experiments.”

[2] = molecular target: T1, receptor interacting protein kinase 1 (GST-hRIPK1 (8-327)); assay: Fluorescent Polarization Binding (FP Binding) assay; conditions: 10 nM GST-hRIPK1 (8-327), 5 nM fluorescent-labeled ligand, 30 min at RT
Summary of the method: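 Displacement of 5 nM fluorescent ligand from 10 nM GST-hRIPK1 (8-327), 30 min at room temperature in pH 7.5 HEPES buffer, 1% DMSO. Fluorescence polarization read (ex 531/em 595 nm); IC50 fitted from percent inhibition and averaged over at least two independent experiments.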

Compound | IC50 [1] | IC50 [2] | melting point
CC1(C(=O)N2OCC[C@H]2c2ccccc2)CCOCC1 [Compound 69, (3S)-2-(4-methyloxane-4-carbonyl)-3-phenyl-1,2-oxazolidine] | < 1000 nM | < 1000 nM | 
CC(C)(C)C(=O)N1OCCC1c1ccc(F)nc1 (centres unmarked) [Compound 70] | < 1000 nM | < 1000 nM | 
CC(C)(C)C(=O)N1OCC[C@@H]1c1ccccc1F [Compound 71] | < 1000 nM | < 1000 nM | 
CC(C)(C)C(=O)N1OCC[C@H]1c1ccccc1F [Compound 72] | < 1000 nM | < 1000 nM | 
CC1(C(=O)N2OCC[C@H]2c2ccccc2)CCC1 [Compound 77, (3S)-2-(1-Methylcyclobutane-carbonyl)-3-phenyl-1,2-oxazolidine] | < 1000 nM | < 1000 nM | 
CC(C)C(=O)N1OCC[C@H]1c1ccccc1 [Compound 78, 2-Methyl-1-[(3S)-3-phenyl-1,2-oxazolidin-2-yl]propan-1-one] | < 1000 nM | < 1000 nM | 
N#CC1(C(=O)N2OCC[C@H]2c2ccccc2)CCC1 [Compound 79, 1-[(3S)-3-Phenyl-1,2-oxazolidine-2-carbonyl]cyclobutane-1-carbonitrile] | < 1000 nM | < 1000 nM | 
COC(C)(C)C(=O)N1OCC[C@H]1c1ccccc1 [Compound 80, 2-Methoxy-2-methyl-1-[(3S)-3-phenyl-1,2-oxazolidin-2-yl]propan-1-one] | < 1000 nM | < 1000 nM | 
CC(C)(C)C(=O)N1OCCC1c1cccnc1F (centres unmarked) [Compound 81, 1-(3-(2-fluoropyridin-3-yl)isoxazolidin-2-yl)-2,2-dimethylpropan-1-one] | < 1000 nM | < 1000 nM | 
CC(C)(C)C(=O)N1OCC[C@H]1c1ccc(C#N)cc1 [Compound 87, 4-[(3S)-2-(2,2-dimethylpropanoyl)-1,2-oxazolidin-3-yl]benzonitrile] | < 1000 nM | < 1000 nM | 
CC(C)(C(=O)N1OCC[C@H]1c1ccc(C#N)cc1)C(F)F [Compound 88, 4-[(3S)-2-(3,3-difluoro-2,2-dimethylpropanoyl)-1,2-oxazolidin-3-yl]benzonitrile] | < 1000 nM | < 1000 nM and 16 nM | 
CC(C)(C(=O)N1OCC[C@H]1c1ccc(F)cc1)C(F)F [Compound 101, 3,3-difluoro-1-[(3S)-3-(4-fluorophenyl)-1,2-oxazolidin-2-yl]-2,2-dimethylpropan-1-one] | < 1000 nM | < 1000 nM and 8 nM | 
CC(C)(C)C(=O)N1OCC[C@H]1c1cncc(C#N)c1 [Compound 108, 5-[(3S)-2-(2,2-dimethylpropanoyl)-1,2-oxazolidin-3-yl]pyridine-3-carbonitrile] | < 1000 nM | < 1000 nM | 
CC(C)(C(=O)N1OCC[C@H]1c1ccc(/C(N)=N/O)cc1)C(F)F [Compound 206, (Z)-4-[(3S)-2-(3,3-Difluoro-2,2-dimethylpropanoyl)-1,2-oxazolidin-3-yl]-N′-hydroxybenzene-1-carboximidamide] |  | 1000 to 10000 nM | 67.3 to 75.6 °C
CC(C)(C(=O)N1OCC[C@H]1c1ccc(-c2ncon2)cc1)C(F)F [Compound 207, 3,3-difluoro-2,2-dimethyl-1-[(3S)-3-[4-(1,2,4-oxadiazol-3-yl)phenyl]-1,2-oxazolidin-2-yl]propan-1-one] |  | < 1000 nM | 87.9 to 88.9 °C

Other lines, results leading:

IC50 [1] | IC50 [2] | melting point | Compound
< 1000 nM | < 1000 nM |  | Cn1cc([C@@H]2CCON2C(=O)C(C)(C)C)cn1 (single isomer, unassigned) [Compound 106]
< 1000 nM | < 1000 nM |  | CC(C)(C)C(=O)N1OCC[C@H]1c1cccc(F)c1 (stereo in doubt) [Compound 23, 1-[3-(3-Fluorophenyl)-1,2-oxazolidin-2-yl]-2,2-dimethylpropan-1-one]
< 1000 nM | < 1000 nM |  | Cn1c(C#N)ccc1C(=O)N1OCC[C@H]1c1ccccc1 [Compound 1, 1-Methyl-5-[(3S)-3-phenyl-1,2-oxazolidine-2-carbonyl]-1H-pyrrole-2-carbonitrile]
< 1000 nM | < 1000 nM |  | CC(C)(C)C(=O)N1OCC[C@H]1c1ccccc1 [Compound 2, 2,2-dimethyl-1-[(3S)-3-phenyl-1,2-oxazolidin-2-yl]propan-1-one]
< 1000 nM | < 1000 nM |  | O=C(Nc1ccccc1)N1OCC[C@H]1c1ccccc1 [Compound 4, (3S)—N,3-diphenyl-1,2-oxazolidine-2-carboxamide]
< 1000 nM | < 1000 nM |  | CC1(C(=O)N2OCC[C@H]2c2ccccc2)COC1 [Compound 8, (3S)-2-(3-Methyloxetane-3-carbonyl)-3-phenyl-1,2-oxazolidine]
< 1000 nM | < 1000 nM |  | O=C(C1CC1)N1OCC[C@H]1c1ccccc1 [Compound 12, (3S)-2-Cyclopropanecarbonyl-3-phenyl-1,2-oxazolidine]
< 1000 nM | < 1000 nM |  | N#CC1(C(=O)N2OCC[C@H]2c2ccccc2)CC1 [Compound 16, 1-[(3S)-3-phenyl-1,2-oxazolidine-2-carbonyl]cyclopropane-1-carbonitrile]
< 1000 nM | < 1000 nM |  | CC(C)(C#N)C(=O)N1OCC[C@H]1c1ccccc1 [Compound 17, 2,2-Dimethyl-3-oxo-3-[(3S)-3-phenyl-1,2-oxazolidin-2-yl]propanenitrile]
< 1000 nM | < 1000 nM |  | O=C(c1onc2ccccc12)N1OCC[C@H]1c1ccccc1 [Compound 18, 3-[(3S)-3-phenyl-1,2-oxazolidine-2-carbonyl]-2,1-benzoxazole]
< 1000 nM | < 1000 nM |  | CC(C)(O)C(=O)N1OCC[C@H]1c1ccccc1 [Compound 19, 2-Hydroxy-2-methyl-1-[(3S)-3-phenyl-1,2-oxazolidin-2-yl]propan-1-one]
< 1000 nM | < 1000 nM |  | CC1(C(=O)N2OCC[C@H]2c2ccccc2)CC1 [Compound 20, (3S)-2-(1-Methylcyclopropanecarbonyl)-3-phenyl-1,2-oxazolidine]
< 1000 nM | < 1000 nM |  | CC(C)C(=O)N1OCC[C@H]1c1ccc(F)cc1 [Compound 64, 1-[(3S)-3-(4-Fluorophenyl)-1,2-oxazolidin-2-yl]-2-methylpropan-1-one]
